One data set can be described thus: PK analysis in rats. The conditions noted are these: male, Sprague-Dawley, rat, plasma, po, 100 mg/kg. The data set is classed as in vivo.
Data set [1] can be described thus: Water solubility by UV-vis. The conditions noted are these: deionized water, 20 °C, thermodynamic from solid.

Converted amounts (≈) assume the structure as drawn.

One may read the AUC as concentration integrated over time. Higher therefore signals high exposure. In general, AUC(0-inf) refers to the area under the concentration-time curve extrapolated to infinity. For orientation: AUC(0-t) means exposure summed from dosing to a finite time, without extrapolation to infinity. A high value points to high exposure. Broadly, the Tmax is the time at which the peak concentration occurs. The term solubility denotes the concentration that dissolves in the medium under given conditions. Higher therefore signals much dissolved substance. Consider `C=C(c1ccc(C(=O)O)cc1)c1cc2c(cc1C)C(C)(C)CCC2(C)C` [Compound 1, bexarotene], for which, in “PK analysis in rats”, the AUC turned out to be 51500 ng·h/mL, the AUC(0-inf) amounted to 54300 ng·h/mL, the exposure AUC(0-t) stood at 51500 ng·h/mL and the time of peak concentration (Tmax) is 2 h. The compound further had a solubility at 24 h in data set [1] of 0.28 ± 0.02 µM (≈ 0.0976 µg/mL).
